Earlier results in patent publication US20190381137A1, “BOLAAMPHIPHILIC COMPOUNDS, COMPOSITIONS AND USES THEREOF” (Lauren Sciences LLC, priority 2012, published 2019).

Conditions: conjugate acid (protonated form) of the imidazole side chain

pKa: approximately 6.0
SMILES: N[C@@H](Cc1c[nH]cn1)C(=O)O [histidine]
